From ChEMBL document CHEMBL6153168, “Novel Tricyclic KRAS Inhibitors for the Treatment of Cancer” (ACS Med Chem Lett, 2025)

Experiments:
[1] = Disruption of 6-his tagged KRAS G12V mutant/BRAF RBD complex (unknown origin) incubated for 3 hrs in the presence of CYPA by TR-FRET assay; parameters: species or system Homo sapiens
[2] = Disruption of 6-his tagged KRAS G12D mutant/BRAF RBD complex (unknown origin) incubated for 3 hrs in the presence of CYPA by TR-FRET assay; parameters: species or system Homo sapiens
[3] = Disruption of 6his-tagged KRAS G12C mutant/BRAF RBD complex (unknown origin) incubated for 3 hrs in the presence of CYPA by TR-FRET assay; parameters: species or system Homo sapiens
SW-620 = assay: Anticancer activity against human SW620 cells harboring KRAS G12V mutant assessed as inhibition of cell viability incubated for 72 hrs by cell counting kit 8 method; type: functional, cell-based; conditions: SW-620, 72 h
NCI-H358 = assay: Anticancer activity against human NCI-H358 cells harboring KRAS G12C mutant assessed as inhibition of cell viability incubated for 72 hrs by cell counting kit 8 method; type: functional, cell-based; conditions: NCI-H358, 72 h
AGS = assay: Anticancer activity against human AGS cells harboring KRAS G12D mutant assessed as inhibition of cell viability incubated for 72 hrs by cell counting kit 8 method; type: functional, cell-based
[4] = Inhibition of ERK phosphorylation in human SW620 cells harboring KRAS G12V mutant incubated for 4 hrs by absorbance based analysis; type: cell-based; conditions: SW-620, 4 h
[5] = Inhibition of ERK phosphorylation in human NCI-H358 cells harboring KRAS G12C mutant incubated for 4 hrs by absorbance based analysis; type: cell-based; conditions: NCI-H358, 4 h
[6] = Inhibition of ERK phosphorylation in human AGS cells harboring KRAS G12D mutant incubated for 4 hrs by absorbance based analysis; type: cell-based

Row | IC50 [1] [nM] | IC50 [2] [nM] | IC50 [3] [nM] | IC50 (SW-620) [nM] | IC50 (NCI-H358) [nM] | IC50 (AGS) [nM] | IC50 [4] [nM] | IC50 [5] [nM] | IC50 [6] [nM] | SMILES
1 | 164 | 1880 | 6 | – | – | – | – | – | – | CO[C@@H](C)c1ncccc1-c1c2c3cc(cc4c3n1CCC4)-c1cc(O)cc(c1)C[C@H](NC(=O)[C@H](C(C)C)N(C)C(=O)C1(F)CCN(C(=O)[C@H](F)Cl)CC1)C(=O)N1CCC[C@H](N1)C(=O)OCC(C)(C)C2
2 | 445 | 3910 | 16 | – | – | – | – | – | – | CO[C@@H](C)c1ncccc1-c1c2c3cc(cc4c3n1CCO4)-c1cc(O)cc(c1)C[C@H](NC(=O)[C@H](C(C)C)N(C)C(=O)C1(F)CCN(C(=O)[C@H](F)Cl)CC1)C(=O)N1CCC[C@H](N1)C(=O)OCC(C)(C)C2

The remaining lines, values behind:

Row | SMILES | IC50 [1] [nM] | IC50 [2] [nM] | IC50 [3] [nM] | IC50 (SW-620) [nM] | IC50 (NCI-H358) [nM] | IC50 (AGS) [nM] | IC50 [4] [nM] | IC50 [5] [nM] | IC50 [6] [nM]
3 | CO[C@@H](C)c1ncc(N2CCOCC2)cc1-c1c2c3cc(cc4c3n1CC(F)(F)C4)-c1csc(n1)C[C@H](NC(=O)[C@H](C(C)C)N(C)C(=O)C1(F)CCN(C(=O)[C@H](F)Cl)CC1)C(=O)N1CCC[C@H](N1)C(=O)OCC(C)(C)C2 | – | – | – | 26 | 8 | 16 | – | – | –
4 | CO[C@@H](C)c1ncc(N2CCOCC2)cc1-c1c2c3cc(cc4c3n1CCC4)-c1csc(n1)C[C@H](NC(=O)[C@H](C(C)C)N(C)C(=O)C1(F)CCN(C(=O)[C@H](F)Cl)CC1)C(=O)N1CCC[C@H](N1)C(=O)OCC(C)(C)C2 | – | – | – | – | – | – | 23 | 1 | > 10000
5 | CO[C@@H](C)c1ncc(N2CCN(C)CC2)cc1-c1c2c3cc(cc4c3n1CCC4)-c1csc(n1)C[C@H](NC(=O)[C@H](C(C)C)N(C)C(=O)C1(F)CCN(C(=O)[C@H](F)Cl)CC1)C(=O)N1CCC[C@H](N1)C(=O)OCC(C)(C)C2 | – | – | – | 107 | 2 | 292 | – | – | –
6 | CO[C@@H](C)c1ncc(N2CCN(C)CC2)cc1-c1c2c3cc(cc4c3n1CCC4)-c1csc(n1)C[C@H](NC(=O)[C@H](C(C)C)N1CCC3(CN(C(=O)[C@H](F)Cl)C3)C1=O)C(=O)N1CCC[C@H](N1)C(=O)OCC(C)(C)C2 | – | – | – | – | – | – | 38 | 19 | 62
